{"source": "patent EP2204099A1", "about": "“Methods for producing pure amino acid chelate complexes, and uses thereof” (Viva Pharmaceuticals Inc., priority 2008, dated 2010)", "key": {"[1]": {"tested_on": "CTX-induced immunodeficient mice", "assay": "Clearance of charcoal particles (carbon clearance test) in CTX-induced immunodeficient mice", "type": "in vivo", "details": "17 mg/kg per os; CTX 50 mg/kg i.p.; x±sd, n=10", "experimental": "A total of 70 mice were divided into 7 treatment groups: Vehicle; CTX (cyclophosphamide) + Vehicle; CTX+ZnSO4 (17mg mg/kg); CTX+Zinc chelate (Zn:2Asp:2Lys) (57 mg/kg); CTX+Zinc chelate (Zn:2Asp:2Lys) (114 mg/kg); CTX+Zinc chelate (Zn:2Asp:2Lys) (228 mg/kg); and CTX+Zinc chelate (Zn:2Asp:2Lys) (456 mg/kg). The mice were administrated per os at least 16 days before experimentation. CTX was given as an intraperitoneal injection at the dose of 50 mg/kg every day for 4 days after 9 days of drug administration.\nSixty minutes after the last drug administration, mice were injected with 1:3 diluted Indian ink 10 ml/kg. At 1 min (T1) and 11 min (T2), bold 40µl was taken from retroocular venous plexus and resolved in 0.1 % Na2CO3 solution 4 ml. The absorbance (OD) was measured at 600 nm by a 721 spectrophotometer. The clearance rate K and clearance index a were calculated: K = (lgOD1-lgOD2)/T2 -T1 [formula] α = K^(1/3) × W/(liver weight+spleen weight) [formula] (W: weight of mouse)"}, "[2]": {"tested_on": "CTX-induced immunodeficient mice", "assay": "Serum hemolysin test in CTX-induced immunodeficient mice", "type": "in vivo", "details": "17 mg/kg per os; SRBC-immunized; CTX 50 mg/kg i.p.; x±sd, n=10", "experimental": "A total of 70 mice were divided into […] treatment groups: Vehicle; CTX (cyclophosphamide) + Vehicle; CTX+Zinc Sulphate (17mg mg/kg); CTX+Zinc chelate (Zn:[…]:[…]) (57 mg/kg); CTX+Zinc chelate (Zn:[…]:[…]) (114 mg/kg); CTX+Zinc chelate (Zn:[…]:[…]) (228 mg/kg); CTX+Zinc chelate (Zn:[…]:[…]) (456 mg/kg). The mice were administrated per os at least 16 days before experimentation. After 8 days of drug or vehicle administration, all mice were immunized with an intraperitioneal injection of 0.2 ml of 20% SRBC (sheep red blood cell) in saline. CTX was given intraperitoneal injection at the dose of 50 mg/kg every day for 4 days after 9 days of drug administration. Sixty minutes after the last drug administration, blood was collected by retroorbital venous plexus puncture, and then centrifuged (2000 r/min 5 min). Sheep red cell suspension 0.5 ml (5% sheep red cell in saline) was added to 1 ml diluted sera (1:500 dilution with saline), followed by 1 ml diluted guinea pig plasma (10% plasma in saline) in sequence. For negative controls, the durg waqs substituted with saline. The samples and controls were incubated for 10 min at 37°C, and then immersed in an ice-water bath (0°C) to stop the reaction. […] The absorbance for each tube was recorded and the 50% hemolytic dose (HC50) was calculated as follows: Sample HC50 = sample absorbance 50% hemolytic absorbance x dilution factors."}}}
{"substance": "Zinc Sulphate", "values": [{"measurement": "α (clearance index)", "setting": "[1]", "result": "4.2988±1.4347"}, {"measurement": "HC50 (serum hemolysin)", "setting": "[2]", "result": "141.7±29.5"}]}
